Laboratory results from ChEMBL document CHEMBL2073762, “Carrier-mediated mechanism for the biliary excretion of the quinolone antibiotic grepafloxacin and its glucuronide in rats” (J Pharmacol Exp Ther, 1998).

Columns and labels:
[1] = molecular target: T1, ATP-binding cassette sub-family C member 2 (Rattus norvegicus, UniProt Q63120); assay: TP_TRANSPORTER: inhibition of DNP-SG uptake in bile canalicular membrane vesicles from SD rat; assay type: functional, cell membranes, Sprague-Dawley, Bile canalicular membrane vesicle
[2] = molecular target: T1, ATP-binding cassette sub-family C member 2; assay: TP_TRANSPORTER: uptake in bile canalicular membrane vesicles from EHBR rat; assay type: functional, cell membranes, Bile canalicular membrane vesicle
[3] = molecular target: T1, ATP-binding cassette sub-family C member 2; assay: TP_TRANSPORTER: uptake in bile canalicular membrane vesicles from SD rat; assay type: functional, cell membranes, Sprague-Dawley, Bile canalicular membrane vesicle
[4] = molecular target: T1, ATP-binding cassette sub-family C member 2; assay: TP_TRANSPORTER: inhibition of DNP-SG uptake (DNP-SG: 1 uM, LFLX: 10000uM) in bile canalicular membrane vesicles from SD rat; assay type: functional, cell membranes, Sprague-Dawley, Bile canalicular membrane vesicle
[5] = molecular target: T1, ATP-binding cassette sub-family C member 2; assay: TP_TRANSPORTER: inhibition of DNP-SG uptake (DNP-SG: 1 uM, LFLX: 10000uM) in bile canalicular membrane vesicles from EHBR rat; assay type: functional, cell membranes, Bile canalicular membrane vesicle
[6] = molecular target: T1, ATP-binding cassette sub-family C member 2; assay: TP_TRANSPORTER: inhibition of DNP-SG uptakee (DNP-SG: 1 uM, OFLX: 10000 uM) in bile canalicular membrane vesicles from SD rat; assay type: functional, cell membranes, Sprague-Dawley, Bile canalicular membrane vesicle
[7] = molecular target: T1, ATP-binding cassette sub-family C member 2; assay: TP_TRANSPORTER: inhibition of DNP-SG uptakee (DNP-SG: 1 uM, SPFX: 3000 uM) in bile canalicular membrane vesicles from SD rat; assay type: functional, cell membranes, Sprague-Dawley, Bile canalicular membrane vesicle; design: scale not given: the % may be the effect or the level left
[8] = molecular target: ATP-binding cassette sub-family C member 2 (ABCC2/Mrp2) (Rattus norvegicus, UniProt Q63120); assay: TP_TRANSPORTER: inhibition of DNP-SG uptakee (DNP-SG: 1 uM, SPFX: 3000 uM) in bile canalicular membrane vesicles from EHBR rat; assay type: functional, cell membranes, Bile canalicular membrane vesicle; design: scale not given: the % may be the effect or the level left; conditions: probe DNP-SG (1 uM), read-out: Activity
[9] = substrate: Cc1c(F)c(N2CCNC(C)C2)cc2c1c(=O)c(C(=O)O[C@@H]1O[C@H](C(=O)O)[C@@H](O)[C@H](O)[C@H]1O)cn2C1CC1; assay: TP_TRANSPORTER: uptake, high affinity component in bile canalicular membrane vesicles from SD rat; assay type: functional, cell membranes, Sprague-Dawley, Bile canalicular membrane vesicle

`Cc1c(F)c(N2CCNC(C)C2)cc2c1c(=O)c(C(=O)O[C@@H]1O[C@H](C(=O)O)[C@@H](O)[C@H](O)[C@H]1O)cn2C1CC1` (stereo not given in full) [GREPAFLOXACIN GLUCURONIDE] showed a Ki [1] of 9.2 µM.

With `Cc1c(F)c(N2CCNC(C)C2)cc2c1c(=O)c(C(=O)O)cn2C1CC1` (stereo not given) [GREPAFLOXACIN] the Ki [1] was 1890 µM, the Activity [2] was “substrate [+]” and the Activity [3] was “substrate [+]”.

In the case of `CCn1cc(C(=O)O)c(=O)c2cc(F)c(N3CCNC(C)C3)c(F)c21` (stereo not given) [LOMEFLOXACIN], the Activity [4] is reported as “inhibitor [(at a rough estimate) 50 % of control]” and the Activity [5] is reported as “inhibitor [(at a rough estimate) 50 % of control]”.

`CC1COc2c(N3CCN(C)CC3)c(F)cc3c(=O)c(C(=O)O)cn1c23` (stereo not given) [OFLOXACIN] was tested, and the Activity [6] was “inhibitor [(at a rough estimate) 50 % of control]”.

`C[C@@H]1CN(c2c(F)c(N)c3c(=O)c(C(=O)O)cn(C4CC4)c3c2F)C[C@H](C)N1` [SPARFLOXACIN] was tested, and the Activity [7] was 60% and the activity at 3000 µM [8] was 60%.

B1: ATP-binding cassette sub-family C member 2 (Rattus norvegicus) (protein)
chain: MDKFCNSTFWDLSLLESPEADLPLCFEQTVLVWIPLGFLWLLAPWQLYSVYRSRTKRSSITKFYLAKQVFVVFLLILAAIDLSLALTEDTGQATVPPVRYTNPILYLCTWLLVLAVQHSRQWCVRKNSWFLSLFWILSVLCGVFQFQTLIRALLKDSKSNMAYSYLFFVSYGFQIVLLILTAFSGPSDSTQTPSVTASFLSSITFSWYDRTVLKGYKHPLTLEDVWDIDEGFKTRSVTSKFEAAMTKDLQKARQAFQRRLQKSQRKPEATLHGLNKKQSQSQDVLVLEEAKKKSEKTTKDYPKSWLIKSLFKTFHVVILKSFILKLIHDLLVFLNPQLLKLLIGFVKSSNSYVWFGYICAILMFAVTLIQSFCLQSYFQHCFVLGMCVRTTVMSSIYKKALTLSNLARKQYTIGETVNLMSVDSQKLMDATNYMQLVWSSVIQITLSIFFLWRELGPSILAGVGVMVLLIPVNGVLATKIRNIQVQNMKNKDKRLKIMNEILSGIKILKYFAWEPSFQEQVQGIRKKELKNLLRFGQLQSLLIFILQITPILVSVVTFSVYVLVDSANVLNAEKAFTSITLFNILRFPLSMLPMVTSSILQASVSVDRLERYLGGDDLDTSAIRRVSNFDKAVKFSEASFTWDPDLEATIQDVNLDIKPGQLVAVVGTVGSGKSSLVSAMLGEMENVHGHITIQGSTAYVPQQSWIQNGTIKDNILFGSEYNEKKYQQVLKACALLPDLEILPGGDMAEIGEKGINLSGGQKQRVSLARAAYQDADIYILDDPLSAVDAHVGKHIFNKVVGPNGLLAGKTRIFVTHGIHFLPQVDEIVVLGKGTILEKGSYRDLLDKKGVFARNWKTFMKHSGPEGEATVNNDSEAEDDDDGLIPTMEEIPEDAASLAMRRENSLRRTLSRSSRSSSRRGKSLKNSLKIKNVNVLKEKEKEVEGQKLIKKEFVETGKVKFSIYLKYLQAVGWWSILFIILFYGLNNVAFIGSNLWLSAWTSDSDNLNGTNNSSSHRDMRIGVFGALGLAQGICLLISTLWSIYACRNASKALHGQLLTNILRAPMRFFDTTPTGRIVNRFSGDISTVDDLLPQTLRSWMMCFFGIAGTLVMICMATPVFAIIIIPLSILYISVQVFYVATSRQLRRLDSVTKSPIYSHFSETVTGLPIIRAFEHQQRFLAWNEKQIDINQKCVFSWITSNRWLAIRLELVGNLVVFCSALLLVIYRKTLTGDVVGFVLSNALNITQTLNWLVRMTSEAETNIVAVERISEYINVENEAPWVTDKRPPADWPRHGEIQFNNYQVRYRPELDLVLKGITCNIKSGEKVGVVGRTGAGKSSLTNCLFRILESAGGQIIIDGIDVASIGLHDLRERLTIIPQDPILFSGSLRMNLDPFNKYSDEEVWRALELAHLRSFVSGLQLGLLSEVTEGGDNLSIGQRQLLCLGRAVLRKSKILVLDEATAAVDLETDSLIQTTIRKEFSQCTVITIAHRLHTIMDSDKIMVLDNGKIVEYGSPEELLSNRGSFYLMAKEAGIENVNHTEL
B1 showed a Km [9] of 7.2 µM.
